US4376780A, “Novel phenethylamine derivatives and bronchdilator containing the same” (Eisai Co., Ltd., priority 1976, dated 1983)
Entries after “also recorded” stand apart in the source; their conditions may differ. Structures can show the parent of a compound that is named as a salt. Where two headings read alike, the source gives them in different places.

Key:
[1] = tested on: blood pressure in the anesthetized dogs; assay: Effect on the blood pressure, anesthetized dogs; assay type: in vivo
Procedure: (§1) Normally healthy dogs (body weights were 10-15 Kg) were used as subject animals, and anesthetized with sodium pentobarbital urethane. The compounds to be examined were injected into the femoral vein of the dog. The inhibitory effect on the increasing reaction of the histamine (10 μg/Kg were administered) to the air way resistance was determined by Konzett-Rossler method.
Effect On The Blood Pressure
Using the anesthetized dogs as same as pharmacological experiment 2, and injecting the compounds to be examined into the dogs from the femoral vein, the effect on the blood pressure was examined.

[2] = tested on: air way resistance increased by histamine; assay: Inhibitory effect on the increasing reaction of the air-way resistance of histamine (Konzett-Rossler), anesthetized dogs; assay type: in vivo
Procedure: Inhibitory Effect On The Increasing Reaction Of The Air-Way Resistance Of Histamine
as §1

[3] = Acute toxicity, mice, oral; details: mouse, in vivo, 7 days observation
Description: There was examined and observed the acute toxicity of the compounds to be examined for 7 days in the case of oral administration to mice.

[4] = tested on: heart beat numbers of the anesthetized dogs; assay: Effect on the heart beat numbers, anesthetized dogs; assay type: in vivo; details: intravenous
Procedure: as §1
Using anesthetized dogs as same as the pharmacological experiment 2, and injecting the compounds to be examined into the dogs from the femoral vein thereof, the increasing actions to the heart beat numbers were examined.

[5] = tested on: asthmatous fit caused by the histamine spray; assay: Protecting effect against the dyspnea (asthmatous fit) caused by histamine spray, guinea pigs, oral; assay type: in vivo, guinea pigs of Hartley strain; details: for ED50: Cavia porcellus, read-out: ED 50, protecting effect on the asthmatous fit caused by the histamine spray; for protecting effect relative to the two controls, salbutamol and isoproterenol / durability action of the protecting effect / Ratio to isoproterenol (protecting effect): guinea pigs; for durability action of the protecting effect: in words; for Ratio to isoproterenol (protecting effect): isoproterenol = 100
Procedure: Protecting Effect Against The Dyspnea Caused By The Histamine
Male guinea pigs of Hartley strain were used. Aqueous solutions of the compounds to be examined were prepared in various concentrations, and administered orally to the guinea pigs, in a dose of 10 ml/Kg, respectively. After the oral administration, the guinea pigs were taken in a dome. Histamine solution in a concentration of 0.1% was sprayed through a nebulizer at a blow rate of 3500 ml/min. Two symptoms of hypoxia and fit of caughing were used as indices, and a probable appearing time of said two symptoms was watched and observed for 20 minutes from the start of the spraying.
The protecting effect was judged to be effective with the appearing time more than the double of the mean appearing time in 33 examples of the groups wherein physiological saline water was administered.

[6] = tested on: heart beat numbers of the guinea pig; assay: Effect on the heart beat numbers, conscious guinea pigs; assay type: in vivo; details: for increasing action to the heart beat numbers of the guinea pig: calculation from the product of the intensity action with the durability
Procedure: Effect On The Heart Beat Numbers
(1) Conscious guinea pigs
The guinea pigs were used, in which electrodes of stainless steel were pierced and put in both forelegs of the respective guinea pigs under previous anesthesia (after 24 hours from this operation).
The guinea pigs were isolated one by one in observation boxes, recorded their electrocardiogram (the first induction) under quiet circumstances, and heart beat numbers were counted.
All compounds to be examined were administered orally. The recording and measuring were carried out three times before the administration and with the lapse of time until 180 minutes after the administration.
Calculation From The Product Of The Intensity Action With The Durability

[7] = oral, male Hartley guinea pigs, 0.1% histamine spray

| SMILES | dosage showing remarkable depression effect upon the blood pressure ([1]; intravenous, anesthetized dogs) | inhibition at 0.003 mg/kg ([2]; Canis lupus familiaris, iv, read-out: inhibitory effect on the increasing reaction of the histamine to the air way resistance) | inhibitory effect on air way resistance, comparison and durability in words ([2]; intravenous, anesthetized dogs, fumarate) | LD50 at 168 h [3] | dosage showing increasing action to the heart beat numbers [4] | increasing action to the heart beat numbers, comparison in words [4] | ED50 ([5]; po) | protecting effect relative to the two controls, salbutamol and isoproterenol ([5]; oral) | durability action of the protecting effect ([5]; oral) | Ratio to isoproterenol (protecting effect) ([5]; oral) | increasing action to the heart beat numbers of the guinea pig ([6]; 0.3 mg/Kg oral) | increasing action to the heart beat numbers of the guinea pig ([6]; 3 mg/Kg oral) | increasing action to the heart beat numbers of the guinea pig ([6]; 30 mg/Kg oral) | increasing action to the heart beat numbers, in words ([6]; oral, conscious guinea pigs, fumarate) | depression effect on the blood pressure, in words ([1]; dog, in vivo, iv) | ED50 [5, 7] | durability effect on the blood pressure, in words ([1]; dog, in vivo, iv) | inhibition at 0.03 mg/kg ([2]; Canis lupus familiaris, 10 min, 30 μg/Kg, intravenous, after 10 minutes, read-out: inhibitory effect on air way resistance 10 minutes after the administration) | minimal effective dose ([2]; Canis lupus familiaris, intravenous, immediately after administration, read-out: dose with distinct inhibitory effect on air way resistance immediately after the administration) |
| --- | --- | --- | --- | --- | --- | --- | --- | --- | --- | --- | --- | --- | --- | --- | --- | --- | --- | --- | --- |
| COCc1cc(C(O)CNC(C)Cc2ccc(OC)cc2)ccc1O.O=C(O)/C=C/C(=O)O (stereo not drawn) [Compound A, 1-(4-hydroxy-3-methoxymethylphenyl)-2-(α-methyl-4-methoxyphenethylamino)ethanol fumarate] | more than 3 μg/Kg | > 50% | almost same as those of salbutamol | 1050 mg/kg | more than 3 μg/Kg | weaker than that of Isoproterenol, and rather more intense than that of Salbutamol | 0.39 mg/kg | 5-7 times | extended obviously longer than those of the two controls | 744 | 36.8 | 75.0 | 93.7 | distinct increasing action to the heart beat numbers with the dosage of 0.3 mg/Kg; also recorded: relatively same as that of Salbutamol and weaker than that of Isoproterenol | – | – | – | – | – |
| COCc1cc(C(O)CNC(C)Cc2ccc(O)cc2)ccc1O.O=C(O)C(=O)O (stereo not drawn) [Compound C, 1-(4-hydroxy-3-methoxymethylphenyl)-2-(α-methyl-4-hydroxyphenethylamino)ethanol oxalate] | – | – | – | 1200 mg/kg | – | – | 0.36 mg/kg | 5-7 times | extended obviously longer than those of the two controls | 806 | – | – | – | – | – | – | – | – | – |
| CC(C)(C)NCC(O)c1ccc(O)c(CO)c1.Cl (stereo not shown) [Salbutamol, 1-(4-hydroxy-3-hydroxymethylphenyl)-2-(t-butylamino)-ethanol hydrochloride, reference compound] | – | – | – | – | – | – | – | – | – | – | – | – | – | – | rather weaker tendency | 2.25 mg/kg | – | – | – |
| CC(C)NCC(O)c1ccc(O)c(O)c1 [Isoproterenol, L-isoproterenol hydrochloride, reference compound] | – | – | – | – | – | – | – | – | – | – | 87.3 | 86.9 | 147.0 | – | more intense depression effect than that of the compound A of this invention | 2.9 mg/kg | relatively short in durability effect | 10% | ~0.001 mg/kg |
| COCc1cc(C(O)CNC(C)Cc2ccc3c(c2)OCO3)ccc1O (stereo not drawn) [Compound B, 1-(4-hydroxy-3-methoxymethylphenyl)-2-(α-methyl-3,4-methylenedioxyphenethylamine)ethanol oxalate] | – | – | – | 1200 mg/kg | – | – | – | 5-7 times | extended obviously longer than those of the two controls | 518 | – | – | – | – | – | 0.56 mg/kg | – | – | – |
